Experimental findings from patent publication US20070087352A9, “Inhibitors for androgen antagonist refractory prostate cancer” (priority 2003, published 2007) are described below.

One assay deals with T1, hERα-LBD (Homo sapiens, UniProt P03372).
T1 sequence (P03372 311-547 limits assumed): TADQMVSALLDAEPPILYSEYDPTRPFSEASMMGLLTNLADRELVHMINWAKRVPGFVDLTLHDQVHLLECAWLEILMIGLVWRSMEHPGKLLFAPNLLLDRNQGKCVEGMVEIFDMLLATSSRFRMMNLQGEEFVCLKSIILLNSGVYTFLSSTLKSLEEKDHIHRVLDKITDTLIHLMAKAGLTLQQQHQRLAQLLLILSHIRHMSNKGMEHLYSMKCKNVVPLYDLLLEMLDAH
Description: Electrophoretic mobility shift assay (native PAGE). The following applies: 2-fold or 10-fold molar excess of peptide, 6% native PAGE. Type of assay: binding. As for the experimental part:
Eight microgram samples of purified hERα-LBD bound to either DES or OHT were incubated in the absence of the GRIP1 NR Box 2 peptide (SEQ ID NO:4), i.e., buffer alone, or in the presence of either a 2-fold or 10-fold molar excess of the GRIP1 NR Box 2 peptide. The binding reactions were performed on ice for 45 minutes in 10 μl of buffer containing 20 mM Tris, pH 8.1, 1 mM DTT, and 200 mM NaCl and then subjected to 6% native PAGE. Gels were stained with GELCODE Blue Stain reagent (Pierce).
In the presence of the NR box 2 peptide, the migration of the DES-LBD complex was retarded. In contrast, peptide addition had no effect on the mobility of the OHT-LBD complex.
In general terms: In EMSA bound probe runs differently from free probe, usually more slowly.

The target of another assay is T2, agonist-bound ERα LBD (Homo sapiens, UniProt P03372).
T2 sequence (P03372 311-547 limits assumed): T1 sequence (P03372 311-547 limits assumed)
Description: Competition assays of GRIP1 NR Box 2 peptide. The following applies: binding to agonist-bound ERα LBD.

One may read the IC50 as the concentration that inhibits the measured activity by half. A lower IC50 goes with higher potency. Take “H-KHKILHRLLQDSS-OH [GRIP1 NR Box 2 peptide]”: the “migration of the DES-LBD complex” value at hERα-LBD (hERα-LBD bound to agonist DES) is on record as “retarded”. For the same substance, the “mobility of the OHT-LBD complex” value at hERα-LBD (hERα-LBD bound to antagonist OHT) was “no effect”. In addition, the IC50 at agonist-bound ERα LBD was less than 400 nM.
